# Results from patent US20180110762A1, “Compositions Methods for Treating Chronic Kidney Disease” (Merck Sharp & Dohme Corp, priority 2015, published 2018).
# Assay: ZSF1 rat 28-week in-feed study: body weight, food and water intake
# Type: in vivo
# Settings: obese ZSF1 rats
# Procedure: The effects of Compound A (“A”) on renal function, plasma triglycerides, plasma cholesterol, kidney collagen I, kidney collagen III, renal histology, glomerular filtration rate, fibrosis score, and mRNA gene expression (profibrotic genes and integrin β3) were evaluated in male obese ZSF1 rats (a hybrid F1 of Zucker diabetic fatty rat and spontaneously hypertensive heart failure rat; a diabetic nephropathy model) when administered as in-feed for 28 weeks. Sixty obese male ZSF1 rats were randomized to five groups: Obese control (n=12), Compound A 60 mpk (n=12), Compound A 200 mpk (n=12), Compound A 400 mpk (n=12), Enalapril 10 mpk (n=12); Eight lean male ZSF1 rats were used for normal control. Renal functional changes were monitored by blood and urine analysis following in-feed dosing for 28 weeks. Compound exposure was also monitored during the study.
smiles,measurement,setting,value
"COc1ccc([C@H](CC(=O)O)N2CCN(CCCc3ccc4c(n3)NCCC4)C2=O)cn1 [Compound A, 3-{2-Oxo-3-[3-(5,6,7,8-tetrahydro-[1,8]naphthyridin-2-yl)-propyl]imidazolidin-1-yl}-3 (S)-(6-methoxy-pyridin-3-yl)-propionic acid]",Body Weight,"60 mpk in-feed, week 1",566.6 ± 7.3 grams
same,Food Intake,"60 mpk in-feed, week 1",30.5 ± 1.2 grams/24 h
same,Water Intake,"60 mpk in-feed, week 1",34.6 ± 3.4 mls/24 h
same,Body Weight,"60 mpk in-feed, week 2",577.4 ± 7.2 grams
same,Food Intake,"60 mpk in-feed, week 2",26.9 ± 1.0 grams/24 h
same,Water Intake,"60 mpk in-feed, week 2",34.5 ± 2.2 mls/24 h
same,Body Weight,"60 mpk in-feed, week 4",599.8 ± 7.4 grams
same,Food Intake,"60 mpk in-feed, week 4",29.5 ± 2.1 grams/24 h
same,Water Intake,"60 mpk in-feed, week 4",46.0 ± 5.7 mls/24 h
same,Body Weight,"60 mpk in-feed, week 6",624.7 ± 9.0 grams
same,Food Intake,"60 mpk in-feed, week 6",32.8 ± 0.9 grams/24 h
same,Water Intake,"60 mpk in-feed, week 6",45.8 ± 4.5 mls/24 h
same,Body Weight,"60 mpk in-feed, week 8",652.0 ± 9.4 grams
same,Food Intake,"60 mpk in-feed, week 8",34.1 ± 1.1 grams/24 h
same,Water Intake,"60 mpk in-feed, week 8",59.2 ± 4.5 mls/24 h
same,Body Weight,"60 mpk in-feed, week 10",678.0 ± 10.9 grams
same,Body Weight,"60 mpk in-feed, week 12",703.7 ± 11.9 grams
same,Food Intake,"60 mpk in-feed, week 12",36.7 ± 1.6 grams/24 h
same,Water Intake,"60 mpk in-feed, week 12",71.5 ± 4.9 mls/24 h
same,Body Weight,"60 mpk in-feed, week 14",712.1 ± 12.7 grams
same,Body Weight,"60 mpk in-feed, week 16",733.8 ± 13.2 grams
same,Food Intake,"60 mpk in-feed, week 16",33.2 ± 1.3 grams/24 h
same,Water Intake,"60 mpk in-feed, week 16",63.7 ± 4.9 mls/24 h
same,Body Weight,"60 mpk in-feed, week 18",746.9 ± 14.1 grams
same,Body Weight,"60 mpk in-feed, week 21",781.1 ± 14.1 grams
same,Food Intake,"60 mpk in-feed, week 21",34.6 ± 1.6 grams/24 h
same,Water Intake,"60 mpk in-feed, week 21",64.5 ± 8.5 mls/24 h
same,Body Weight,"60 mpk in-feed, week 24",808.9 ± 14.6 grams
same,Food Intake,"60 mpk in-feed, week 24",31.2 ± 1.0 grams/24 h
same,Water Intake,"60 mpk in-feed, week 24",59.4 ± 4.7 mls/24 h
same,Body Weight,"60 mpk in-feed, week 28",839.0 ± 14.9 grams
same,Food Intake,"60 mpk in-feed, week 28",31.6 ± 1.0 grams/24 h
same,Water Intake,"60 mpk in-feed, week 28",66.5 ± 6.6 mls/24 h
same,Body Weight,"60 mpk in-feed, week −2",521.3 ± 6.9 grams
same,Food Intake,"60 mpk in-feed, week −2",38.6 ± 1.0 grams/24 h
same,Water Intake,"60 mpk in-feed, week −2",60.8 ± 4.5 mls/24 h
same,Body Weight,"200 mpk in-feed, week 1",568.6 ± 7.4 grams
same,Food Intake,"200 mpk in-feed, week 1",29.0 ± 1.0 grams/24 h
same,Water Intake,"200 mpk in-feed, week 1",30.7 ± 1.9 mls/24 h
same,Body Weight,"200 mpk in-feed, week 2",581.5 ± 7.0 grams
same,Food Intake,"200 mpk in-feed, week 2",29.2 ± 1.1 grams/24 h
same,Water Intake,"200 mpk in-feed, week 2",29.2 ± 2.5 mls/24 h
same,Body Weight,"200 mpk in-feed, week 4",605.9 ± 7.1 grams
same,Food Intake,"200 mpk in-feed, week 4",30.6 ± 1.0 grams/24 h
same,Water Intake,"200 mpk in-feed, week 4",33.4 ± 2.0 mls/24 h
same,Body Weight,"200 mpk in-feed, week 6",631.8 ± 7.7 grams
same,Food Intake,"200 mpk in-feed, week 6",34.3 ± 1.6 grams/24 h
same,Water Intake,"200 mpk in-feed, week 6",39.4 ± 2.8 mls/24 h
same,Body Weight,"200 mpk in-feed, week 8",663.0 ± 7.4 grams
same,Food Intake,"200 mpk in-feed, week 8",31.8 ± 1.2 grams/24 h
same,Water Intake,"200 mpk in-feed, week 8",51.4 ± 4.6 mls/24 h
same,Body Weight,"200 mpk in-feed, week 10",690.6 ± 8.5 grams
same,Body Weight,"200 mpk in-feed, week 12",718.9 ± 9.3 grams
same,Food Intake,"200 mpk in-feed, week 12",35.6 ± 0.9 grams/24 h
same,Water Intake,"200 mpk in-feed, week 12",63.9 ± 4.8 mls/24 h
same,Body Weight,"200 mpk in-feed, week 14",729.3 ± 11.9 grams
same,Body Weight,"200 mpk in-feed, week 16",754.1 ± 11.9 grams
same,Food Intake,"200 mpk in-feed, week 16",33.6 ± 1.5 grams/24 h
same,Water Intake,"200 mpk in-feed, week 16",57.3 ± 5.0 mls/24 h
same,Body Weight,"200 mpk in-feed, week 18",772.3 ± 13.1 grams
same,Body Weight,"200 mpk in-feed, week 21",800.2 ± 13.9 grams
same,Food Intake,"200 mpk in-feed, week 21",35.6 ± 0.9 grams/24 h
same,Water Intake,"200 mpk in-feed, week 21",58.1 ± 3.6 mls/24 h
same,Body Weight,"200 mpk in-feed, week 24",825.7 ± 14.7 grams
same,Food Intake,"200 mpk in-feed, week 24",31.7 ± 1.2 grams/24 h
same,Water Intake,"200 mpk in-feed, week 24",61.8 ± 3.5 mls/24 h
same,Body Weight,"200 mpk in-feed, week 28",848.1 ± 16.4 grams
same,Food Intake,"200 mpk in-feed, week 28",33.3 ± 1.2 grams/24 h
same,Water Intake,"200 mpk in-feed, week 28",70.5 ± 5.6 mls/24 h
same,Body Weight,"200 mpk in-feed, week −2",520.6 ± 6.4 grams
same,Food Intake,"200 mpk in-feed, week −2",37.7 ± 1.4 grams/24 h
same,Water Intake,"200 mpk in-feed, week −2",59.1 ± 5.9 mls/24 h
same,Body Weight,"400 mpk in-feed, week 1",568.3 ± 6.5 grams
same,Food Intake,"400 mpk in-feed, week 1",30.0 ± 1.6 grams/24 h
same,Water Intake,"400 mpk in-feed, week 1",37.6 ± 2.8 mls/24 h
same,Body Weight,"400 mpk in-feed, week 2",582.8 ± 6.5 grams
same,Food Intake,"400 mpk in-feed, week 2",32.0 ± 1.2 grams/24 h
same,Water Intake,"400 mpk in-feed, week 2",40.3 ± 3.1 mls/24 h
same,Body Weight,"400 mpk in-feed, week 4",604.1 ± 7.2 grams
same,Food Intake,"400 mpk in-feed, week 4",33.6 ± 0.9 grams/24 h
same,Water Intake,"400 mpk in-feed, week 4",45.0 ± 3.7 mls/24 h
same,Body Weight,"400 mpk in-feed, week 6",631.8 ± 8.9 grams
same,Food Intake,"400 mpk in-feed, week 6",34.6 ± 1.2 grams/24 h
same,Water Intake,"400 mpk in-feed, week 6",49.9 ± 4.8 mls/24 h
same,Body Weight,"400 mpk in-feed, week 8",654.5 ± 10.6 grams
same,Food Intake,"400 mpk in-feed, week 8",34.2 ± 1.4 grams/24 h
same,Water Intake,"400 mpk in-feed, week 8",62.2 ± 5.6 mls/24 h
same,Body Weight,"400 mpk in-feed, week 10",676.5 ± 12.7 grams
same,Body Weight,"400 mpk in-feed, week 12",704.8 ± 12.8 grams
same,Food Intake,"400 mpk in-feed, week 12",35.7 ± 0.7 grams/24 h
same,Water Intake,"400 mpk in-feed, week 12",63.5 ± 5.3 mls/24 h
same,Body Weight,"400 mpk in-feed, week 14",704.4 ± 14.6 grams
same,Body Weight,"400 mpk in-feed, week 16",739.3 ± 15.0 grams
same,Food Intake,"400 mpk in-feed, week 16",33.6 ± 0.7 grams/24 h
same,Water Intake,"400 mpk in-feed, week 16",63.0 ± 3.9 mls/24 h
same,Body Weight,"400 mpk in-feed, week 18",757.9 ± 16.9 grams
same,Body Weight,"400 mpk in-feed, week 21",791.2 ± 18.4 grams
same,Food Intake,"400 mpk in-feed, week 21",36.0 ± 1.2 grams/24 h
same,Water Intake,"400 mpk in-feed, week 21",59.3 ± 4.4 mls/24 h
same,Body Weight,"400 mpk in-feed, week 24",823.8 ± 18.9 grams
same,Food Intake,"400 mpk in-feed, week 24",33.3 ± 1.5 grams/24 h
same,Water Intake,"400 mpk in-feed, week 24",67.2 ± 4.8 mls/24 h
same,Body Weight,"400 mpk in-feed, week 28",852.1 ± 19.5 grams
same,Food Intake,"400 mpk in-feed, week 28",32.1 ± 1.7 grams/24 h
same,Water Intake,"400 mpk in-feed, week 28",80.1 ± 4.6 mls/24 h
same,Body Weight,"400 mpk in-feed, week −2",522.3 ± 7.1 grams
same,Food Intake,"400 mpk in-feed, week −2",37.7 ± 1.1 grams/24 h
same,Water Intake,"400 mpk in-feed, week −2",57.2 ± 4.9 mls/24 h
same,effect on body weight (BW),in-feed for 28 weeks,no significant effect
same,effect on food intake (FI),in-feed for 28 weeks,no significant effect
same,effect on water intake (WI),in-feed for 28 weeks,no significant effect
